According to publication PMC6718988, “Bioactivity and Bactericidal Mechanism of Histidine-Rich β-Hairpin Peptide Against Gram-Negative Bacteria” (International Journal of Molecular Sciences, 2019):
Values after ≈ are worked out from the molar mass of the structure shown. Where a SMILES comes first, the peptide text is derived from it. [ ]: non-standard residue; d: D form.

Columns and labels:
[1] = LPS binding assay (BODIPY-TR-cadaverine displacement); parameters: species or system E. coli; conditions: peptide concentration higher than 4 μM; 50 μg/mL LPS, 5 μg/mL BODIPY-TR cadaverine, Tris 50 mM pH 7.4; 100% = 10 μg/mL polymyxin B
Method: The abilities of the antimicrobial peptides to bind LPS were determined using the fluorescent dye BODIPY-TR-cadaverine (BC) substitution method. LPS (50 μg/mL) from E. coli O111:B4 was incubated with BC (5 μg/mL) in Tris buffer (50 mm, pH 7.4) for 4 h. Next, 50 μL of various concentrations of peptides (final concentration of 1–64 μM) and 50 μL of LPS-BC mixture were added to 96-well plates, and the fluorescence was measured using a fluorescence spectrophotometer (Infinite 200 pro, Tecan, China) at an excitation wavelength of 580 nm and an emission wavelength of 620 nm. Each test was performed three times. The values were converted to %∆F (AU) using the following equation:%ΔF (AU) = [(Fobs − F0)/(F100 − F0)] × 100 where Fobs is the fluorescence value measured in the presence of the peptide, F0 is the initial fluorescence of LPS with BC without the addition of peptides, F100 is the fluorescence value produced by adding 10 μg/mL polymyxin B.

[2] = system: human red blood cells (hRBCs); assay: Hemolytic activity; conditions: 1 h, OD 570 nm; for hemolysis rate: at the highest concentration (128 μM), 1% hRBC in PBS, 37 °C, 0.1% Triton X-100 positive control; for MHC, minimum hemolytic concentration: concentration causing 5% hemolysis of hRBC, 1% hRBC in PBS pH 7.4, 37 °C, repeated three times
Method: Briefly, collected human red blood cells (hRBCs) were washed three times with PBS (pH 7.4) and diluted to 1% in PBS. Next, equal volumes of blood cells were mixed with different peptide concentrations in 96-well plates followed by incubated at 37 °C for 1 h. The mixtures were centrifuged (1000 g, 5 min), and the supernatants were transferred to 96-well plates to measure the optical density (OD) at 570 nm. Untreated blood cells were used as negative controls, and 0.1% Triton X-100-treated blood cells were used as positive controls. The minimum peptide concentration corresponding to 5% hemolytic activity was defined as the minimal hemolytic concentration (MHC). These assays were independently repeated three times.

Gram-positive bacteria = conditions: Gram-positive strains; 256 μM used where no activity at 128 μM
Method: (§1) The minimum inhibitory concentration (MIC) was measured using a broth microdilution method to determine the in vitro antimicrobial activity of the peptides. Bacteria were inoculated into MHB and incubated overnight at 37 °C until the bacteria were in log phase growth. Next, we corrected the bacterial concentration to approximately 1 × 10^5 CFU/mL using MHB. The peptides were added to 96-well plates containing 0.01% acetic acid and 0.2% bovine serum albumin at final concentrations ranging from 0.25 to 128 μM. After incubation at 37 °C for 24 h, the absorbance was measured at 492 nm using a microplate reader (Tecan GENios F129004, Tecan, Austria). Broth containing microbes and […] were used as positive and negative controls, respectively. The lowest peptide concentration with no increase in absorbance compared to that of the negative control was defined as the MIC. The experiments were independently performed three times.

[3] = system: Gram-positive and Gram-negative bacteria; conditions: all strains; 256 μM used where no activity at 128 μM
Method: as §1

P. aeruginosa ATCC27853 = assay: microbe, parasite or virus in culture
Method: as §1

E. coli ATCC25922 [4] = assay: microbe, parasite or virus in culture
Method: as §1

S. aureus ATCC29213 = assay: microbe, parasite or virus in culture
Method: as §1

E. coli K99 = assay: microbe, parasite or virus in culture; conditions: E. coli K99; MHB, about 1 × 10^5 CFU/mL, 37 °C, 24 h; three independent experiments
Method: as §1

S. epidermidis ATCC12228 = assay: microbe, parasite or virus in culture
Method: as §1

[5] = system: methicillin-resistant S. aureus ATCC43300; assay: microbe, parasite or virus in culture
Method: as §1

E. coli K88 = assay: microbe, parasite or virus in culture; conditions: E. coli K88; MHB, about 1 × 10^5 CFU/mL, 37 °C, 24 h; three independent experiments
Method: as §1

E. coli UB1005 = assay: microbe, parasite or virus in culture
Method: as §1

S. pullorum C7913 = assay: microbe, parasite or virus in culture
Method: as §1

[6] = RP-HPLC retention time as measure of hydrophobicity; format: physicochemical; conditions: analytical Kromasil C18 column 4.6 mm × 250 mm, 5.0 μm, acetonitrile, flow 1.0 mL/min, used as measure of hydrophobicity
Method: The hydrophobicities of the peptides in solution were reliably mirrored by their high-performance liquid chromatography (HPLC)retention times. The retention times for peptide HI2, HW2, HV2, HF2, and PG-1 were 11.13, 10.55, 12.20, 18.06 and 12.56 min, respectively, indicating the following hydrophobic order: HF2 > PG-1 > HV2 > HI2 > HW2(Table 1).
The designed peptides were synthesized and purified by GL Biochem (Shanghai, China). Acetonitrile was used on an analytical Kromasil C18 column (4.6 mm × 250 mm, 5.0 μm, LC 3000, Beijing, China), and the purity of the peptides was determined to be greater than 95% via reversed-phase high-performance liquid chromatography (RP-HPLC) with a flow rate of 1.0 mL/min. The experimental molecular weights of the peptides were evaluated via ESI-MS analysis, and these values were very close to the calculated masses. Next, the peptides were dissolved in deionized water at a concentration of 2.56 mM, and the peptide solutions were stored at −20 °C.

Gram-negative bacteria = assay: MICs against Gram-negative strains (geometric mean, range); format: cell-based; conditions: Gram-negative strains; 256 μM used where no activity at 128 μM
Method: as §1

E. coli ATCC25922 [7] = assay: Swimming motility assay; format: cell-based; conditions: E. coli ATCC25922, 0.3% agar, 1–8 μM peptide, 37 °C, 20 h; versus untreated control
Method: The cell motility assay was performed on LB medium containing 0.3% agar. The peptides were added to 10 mL of medium at final concentrations of 1–8 μM. After mixing well, the mixtures were poured into 6-well plates and dried for 2 h. Subsequently, an overnight culture of E. coli ATCC 25922 was inoculated in the center of the movement plate. After incubation at 37 °C for 20 h, images were taken using a FluoroChemQ system (Cell biosciences, San Jose, CA, USA). The experiment was independently repeated three times.

E. coli ATCC25922 [8] = assay: SEM characterization of cell morphology; format: cell-based; conditions: E. coli ATCC25922, 1 × MIC (HV2 8 μM, PG-1 4 μM), 1 h
Method: For the SEM sample preparation, E. coli ATCC25922 cells were cultured at 37 °C to mid-log phase in MH broth with constant shaking at 220 rpm, centrifuged at 1000 g and then adjusted to an OD600 of 0.1–0.2 in PBS. […] Bacteria incubated with PBS served as controls. After the incubation, the mixture was centrifuged at 5000 g for 5 min, and the collected bacteria were washed three times with PBS. Approximately 2.5% (w/v) glutaraldehyde was added for fixation at 4 °C overnight, followed by washing three times with PBS. The samples were dehydrated with 50%, 70%, 90%, 100% ethanol for 10 min. A mixture of ethanol and tert-butanol was added to the dried bacterial cells for 30 min, and then t-butanol was added for 1 h. Finally, the samples were dehydrated and coated with liquid CO2 in a critical point dryer and then observed using a Hitachi S-4800 SEM (Hitachi, Tokyo, Japan).

E. coli ATCC25922 [9] = assay: Salt sensitivity assay (MIC in presence of physiological salts); format: cell-based; parameters: unit not given here
Method: Bacteria were inoculated into MHB and incubated overnight at 37 °C until the bacteria were in log phase growth. Next, we corrected the bacterial concentration to approximately 1 × 10^5 CFU/mL using MHB. […] After incubation at 37 °C for 24 h, the absorbance was measured at 492 nm using a microplate reader (Tecan GENios F129004, Tecan, Austria). Broth containing microbes and […] were used as positive and negative controls, respectively. The lowest peptide concentration with no increase in absorbance compared to that of the negative control was defined as the MIC. The experiments were independently performed three times. The effects of salt ions on the antibacterial activities of the antimicrobial peptides were evaluated. Different salt ion concentrations were added to BSA peptide dilutions, and the next steps followed the MIC measurement method. […] These tests were independently repeated three times.

N=C(N)NCCC[C@H](NC(=O)[C@H](CCCNC(=N)N)NC(=O)[C@H](Cc1c[nH]c2ccccc12)NC(=O)[C@H](Cc1c[nH]cn1)NC(=O)[C@H](Cc1c[nH]c2ccccc12)NC(=O)[C@H](Cc1c[nH]cn1)NC(=O)[C@H](Cc1c[nH]c2ccccc12)NC(=O)CNC(=O)[C@H]1CCCN1C(=O)[C@H](Cc1c[nH]c2ccccc12)NC(=O)[C@H](Cc1c[nH]cn1)NC(=O)[C@H](Cc1c[nH]c2ccccc12)NC(=O)[C@H](Cc1c[nH]cn1)NC(=O)[C@H](Cc1c[nH]c2ccccc12)NC(=O)[C@H](CCCNC(=N)N)NC(=O)[C@@H](N)CCCNC(=N)N)C(N)=O [HW2] (H-RRWHWHW[dP]GWHWHWRR-NH2; N-terminus assumed)
LPS binding ability relative to binding activity of polymyxin B [1]: higher than 60%
hemolysis rate [2]: 15.58%
MHC, minimum hemolytic concentration [2]: 8 µM
MBC (GM), geometric mean of MICs, Gram (+) (Gram-positive bacteria): 2.52 µM
MBC (GM), geometric mean of MICs, Gram (+,−) [3]: 3.17 µM
MIC (P. aeruginosa ATCC27853; ATCC27853, 24 h): 8 µM (≈ 19.7 µg/mL)
MIC (E. coli ATCC25922 [4]; ATCC25922, 24 h): 4 µM (≈ 9.85 µg/mL)
MIC (S. aureus ATCC29213; ATCC29213, 24 h): 4 µM (≈ 9.85 µg/mL)
MIC (E. coli K99): 4 µM (≈ 9.85 µg/mL)
MIC (S. epidermidis ATCC12228; ATCC12228, 24 h): 2 µM (≈ 4.92 µg/mL)
MIC ([5]; ATCC43300, 24 h): 2 µM (≈ 4.92 µg/mL)
MIC (E. coli K88): 4 µM (≈ 9.85 µg/mL)
MIC (E. coli UB1005; UB1005, 24 h): 2 µM (≈ 4.92 µg/mL)
MIC (S. pullorum C7913; C7913, 24 h): 2 µM (≈ 4.92 µg/mL)
Retention Time [6]: 10.55 min
MBC (GM), geometric mean of MICs, Gram (−) (Gram-negative bacteria): 3.56 µM

RGGRLCYCRRFCVCVGR-NH2 [PG-1, Protegrin-1, reference compound]
swimming motility (diameter of swimming bacteria) (E. coli ATCC25922 [7]): significantly reduced the diameter of the swimming bacteria
cell morphology by SEM (E. coli ATCC25922 [8]): rough and wrinkled
hemolysis rate [2]: 48.13%
MHC, minimum hemolytic concentration [2]: 4 µM
MIC, FeCl3 (E. coli ATCC25922 [9]; E. coli ATCC25922, 4 μM FeCl3, unit not given): 4
MIC, NH4Cl (E. coli ATCC25922 [9]; E. coli ATCC25922, 6 μM NH4Cl, unit not given): 4
MIC, ZnCl2 (E. coli ATCC25922 [9]; E. coli ATCC25922, 8 μM ZnCl2, unit not given): 2
MIC, MgCl2 (E. coli ATCC25922 [9]; E. coli ATCC25922, 1 mM MgCl2, unit not given): 4
MIC, KCl (E. coli ATCC25922 [9]; E. coli ATCC25922, 4.5 mM KCl, unit not given): 4
MIC, NaCl (E. coli ATCC25922 [9]; E. coli ATCC25922, 150 mM NaCl, unit not given): 4
MIC, Control (E. coli ATCC25922 [9]; E. coli ATCC25922, absence of physiological salts, no unit printed in Table 3 (Table 2 MIC in μM)): 4
MBC (GM), geometric mean of MICs, Gram (+) (Gram-positive bacteria): 5.04 µM
MBC (GM), geometric mean of MICs, Gram (+,−) [3]: 3.70 µM
MIC (P. aeruginosa ATCC27853; P. auruginosa 27853, MHB, about 1 × 10^5 CFU/mL, 37 °C, 24 h, three independent experiments): 8 µM
MIC (E. coli ATCC25922 [4]; E. coli 25922, MHB, about 1 × 10^5 CFU/mL, 37 °C, 24 h, 0.25-128 μM, three independent experiments): 4 µM
MIC (S. aureus ATCC29213; S.aureus 29213, MHB, about 1 × 10^5 CFU/mL, 37 °C, 24 h, three independent experiments): 2 µM
MIC (E. coli K99): 2 µM
MIC (S. epidermidis ATCC12228; S.epidermidis 12228, MHB, about 1 × 10^5 CFU/mL, 37 °C, 24 h, three independent experiments): 8 µM
MIC ([5]; S.aureus 43300 (methicillin-resistant), MHB, about 1 × 10^5 CFU/mL, 37 °C, 24 h, three independent experiments): 8 µM
MIC (E. coli K88): 2 µM
MIC (E. coli UB1005; E. coli UB1005, MHB, about 1 × 10^5 CFU/mL, 37 °C, 24 h, three independent experiments): 2 µM
MIC (S. pullorum C7913; S.pullorum C7913, MHB, about 1 × 10^5 CFU/mL, 37 °C, 24 h, three independent experiments): 4 µM
Retention Time [6]: 12.56 min
MBC (GM), geometric mean of MICs, Gram (−) (Gram-negative bacteria): 3.17 µM
